Experimental data reported in patent US20230365546A1, “5-SUBSTITUTED INDOLE 3-AMIDE DERIVATIVES, PREPARATION METHOD AND USE THEREOF” (ORIGIANT PHARMACEUTICAL CO., LTD, priority 2020, published 2023).

Tests used:
B-Raf(h) = B-Raf(h) (Homo sapiens (Human), UniProt P15056); experiment: Kinase Profiler 10 μM panel
Method: (§1) In vitro kinase assays were conducted using Kinase Profiler services provided by Eurofins. The experimental method was as follows: the small molecule compound to be tested (0.001-10 μM), the protein kinase to be tested were incubated with a buffer containing substrate, 10 mM magnesium acetate, and [γ-^33P-ATP], the reaction was started by adding Mg\TPmix, after incubation for a period of time at room temperature, a 3% phosphate solution was added to the buffer to stop the reaction. Subsequently, 10 μL of the reaction mixture was quantitatively pipetted onto P30 filter paper, which was washed three times with 75 mM phosphate solution and then once with methanol. The P30 filter paper was air-dried and scintillation fluid was added for scintillation counting.

DMPK(h) = DMPK(h) (Homo sapiens (Human), UniProt Q09013); experiment: Kinase Profiler 10 μM panel
Method: as §1

MLK2(h) = MLK2(h) (Homo sapiens (Human), UniProt Q02779); experiment: Kinase Profiler 10 μM panel
Method: (§2) The experimental method was as follows: the small molecule compound to be tested (0.001-10 μM), the protein kinase to be tested were incubated with a buffer containing substrate, 10 mM magnesium acetate, and [γ-^33P-ATP], the reaction was started by adding Mg\TPmix, after incubation for a period of time at room temperature, a 3% phosphate solution was added to the buffer to stop the reaction. Subsequently, 10 μL of the reaction mixture was quantitatively pipetted onto P30 filter paper, which was washed three times with 75 mM phosphate solution and then once with methanol. The P30 filter paper was air-dried and scintillation fluid was added for scintillation counting.

JNK1α1(h) = JNK1α1(h) (Homo sapiens (Human), UniProt P45983); experiment: Kinase Profiler 10 μM panel
Method: as §1

CDKL4(h) = CDKL4(h) (Homo sapiens (Human), UniProt Q5MAI5); experiment: Kinase Profiler 10 μM panel
Method: as §1

CDK2/cyclinA(h) = CDK2/cyclinA(h) (Homo sapiens (Human), UniProt P24941); experiment: Kinase Profiler 10 μM panel
Method: as §1

PIP4K2a(h) = PIP4K2a(h) (Homo sapiens (Human), UniProt P48426); experiment: Kinase Profiler 10 μM panel
Method: as §1

EphA2(h) = EphA2(h) (Homo sapiens (Human), UniProt P29317); experiment: Kinase Profiler 10 μM panel
Method: as §1

CLK3(h) = CLK3(h) (Homo sapiens (Human), UniProt P49761); experiment: Kinase Profiler 10 μM panel
Method: as §1

GRK7(h) = GRK7(h) (Homo sapiens (Human), UniProt Q8WTQ7); experiment: Kinase Profiler 10 μM panel
Method: as §1

FGFR2(N549H)(h) = FGFR2(N549H)(h) (Homo sapiens (Human), UniProt P21802, N549H); experiment: Kinase Profiler 10 μM panel
Method: as §1

MSK1(h) = MSK1(h) (Homo sapiens (Human), UniProt O75582); experiment: Kinase Profiler 10 μM panel
Method: as §1

PKCϵ(h) = PKCϵ(h) (Homo sapiens (Human), UniProt Q02156); experiment: Kinase Profiler 10 μM panel
Method: as §1

CK2α1(h) = CK2α1(h) (Homo sapiens (Human), UniProt P68400); experiment: Kinase Profiler 10 μM panel
Method: as §1

Lyn(h) = Lyn(h) (Homo sapiens (Human), UniProt P07948); experiment: Kinase Profiler 10 μM panel
Method: as §1

Fgr(h) = Fgr(h) (Homo sapiens (Human), UniProt P09769); experiment: Kinase Profiler 10 μM panel
Method: as §1

CDK13/cyclinK(h) = CDK13/cyclinK(h) (Homo sapiens (Human), UniProt Q14004); experiment: Kinase Profiler 10 μM panel; format: biochemical
Method: as §1

TLK2(h) = TLK2(h) (Homo sapiens (Human), UniProt Q86UE8); experiment: Kinase Profiler 10 μM panel
Method: as §1

WNK2(h) = WNK2(h) (Homo sapiens (Human), UniProt Q9Y3S1); experiment: Kinase Profiler 10 μM panel
Method: as §1

p70S6K(h) = p70S6K(h) (Homo sapiens (Human), UniProt P23443); experiment: Kinase Profiler 10 μM panel
Method: as §1

Mer(h) = Mer(h) (Homo sapiens (Human), UniProt Q12866); experiment: Kinase Profiler 10 μM panel
Method: as §1

PKCδ(h) = PKCδ(h) (Homo sapiens (Human), UniProt Q05655); experiment: Kinase Profiler 10 μM panel
Method: as §1

CaMKIIδ(h) = CaMKIIδ(h) (Homo sapiens (Human), UniProt Q13557); experiment: Kinase Profiler 10 μM panel
Method: as §1

RIPK1 = RIPK1 (Homo sapiens (Human), UniProt Q13546); experiment: In vitro kinase assay (Eurofins Kinase Profiler), IC50; format: biochemical; conditions: 0.001-10 μM, read-out: RIPK 1 (IC50)
Method: as §1

ZAK(h) = ZAK(h) (Homo sapiens (Human), UniProt Q9NYL2); experiment: Kinase Profiler 10 μM panel
Method: as §1

MEK1(h) = MEK1(h) (Homo sapiens (Human), UniProt Q02750); experiment: Kinase Profiler 10 μM panel
Method: as §1

PKBγ(h) = PKBγ(h) (Homo sapiens (Human), UniProt Q9Y243); experiment: Kinase Profiler 10 μM panel
Method: as §1

[1] = target: PI3 Kinase (p110a(E542K)/p85a)(m) (Mus musculus (Mouse), UniProt P42337, E542K); experiment: Kinase Profiler 10 μM panel
Method: as §1

STK16(h) = STK16(h) (Homo sapiens (Human), UniProt O75716); experiment: Kinase Profiler 10 μM panel
Method: as §1

STK32C(h) = STK32C(h) (Homo sapiens (Human), UniProt Q86UX6); experiment: Kinase Profiler 10 μM panel
Method: as §1

CDK9/cyclin T1(h) = CDK9/cyclin T1(h) (Homo sapiens (Human), UniProt P50750); experiment: Kinase Profiler 10 μM panel
Method: as §1

Aurora-B(h) = Aurora-B(h) (Homo sapiens (Human), UniProt Q96GD4); experiment: Kinase Profiler 10 μM panel
Method: as §1

MRCKγ(h) = MRCKγ(h) (Homo sapiens (Human), UniProt Q6DT37); experiment: Kinase Profiler 10 μM panel
Method: as §1

MLK3(h) = MLK3(h) (Homo sapiens (Human), UniProt Q16584); experiment: Kinase Profiler 10 μM panel
Method: as §2

Chain of WNK2(h) (Q9Y3S1 whole entry): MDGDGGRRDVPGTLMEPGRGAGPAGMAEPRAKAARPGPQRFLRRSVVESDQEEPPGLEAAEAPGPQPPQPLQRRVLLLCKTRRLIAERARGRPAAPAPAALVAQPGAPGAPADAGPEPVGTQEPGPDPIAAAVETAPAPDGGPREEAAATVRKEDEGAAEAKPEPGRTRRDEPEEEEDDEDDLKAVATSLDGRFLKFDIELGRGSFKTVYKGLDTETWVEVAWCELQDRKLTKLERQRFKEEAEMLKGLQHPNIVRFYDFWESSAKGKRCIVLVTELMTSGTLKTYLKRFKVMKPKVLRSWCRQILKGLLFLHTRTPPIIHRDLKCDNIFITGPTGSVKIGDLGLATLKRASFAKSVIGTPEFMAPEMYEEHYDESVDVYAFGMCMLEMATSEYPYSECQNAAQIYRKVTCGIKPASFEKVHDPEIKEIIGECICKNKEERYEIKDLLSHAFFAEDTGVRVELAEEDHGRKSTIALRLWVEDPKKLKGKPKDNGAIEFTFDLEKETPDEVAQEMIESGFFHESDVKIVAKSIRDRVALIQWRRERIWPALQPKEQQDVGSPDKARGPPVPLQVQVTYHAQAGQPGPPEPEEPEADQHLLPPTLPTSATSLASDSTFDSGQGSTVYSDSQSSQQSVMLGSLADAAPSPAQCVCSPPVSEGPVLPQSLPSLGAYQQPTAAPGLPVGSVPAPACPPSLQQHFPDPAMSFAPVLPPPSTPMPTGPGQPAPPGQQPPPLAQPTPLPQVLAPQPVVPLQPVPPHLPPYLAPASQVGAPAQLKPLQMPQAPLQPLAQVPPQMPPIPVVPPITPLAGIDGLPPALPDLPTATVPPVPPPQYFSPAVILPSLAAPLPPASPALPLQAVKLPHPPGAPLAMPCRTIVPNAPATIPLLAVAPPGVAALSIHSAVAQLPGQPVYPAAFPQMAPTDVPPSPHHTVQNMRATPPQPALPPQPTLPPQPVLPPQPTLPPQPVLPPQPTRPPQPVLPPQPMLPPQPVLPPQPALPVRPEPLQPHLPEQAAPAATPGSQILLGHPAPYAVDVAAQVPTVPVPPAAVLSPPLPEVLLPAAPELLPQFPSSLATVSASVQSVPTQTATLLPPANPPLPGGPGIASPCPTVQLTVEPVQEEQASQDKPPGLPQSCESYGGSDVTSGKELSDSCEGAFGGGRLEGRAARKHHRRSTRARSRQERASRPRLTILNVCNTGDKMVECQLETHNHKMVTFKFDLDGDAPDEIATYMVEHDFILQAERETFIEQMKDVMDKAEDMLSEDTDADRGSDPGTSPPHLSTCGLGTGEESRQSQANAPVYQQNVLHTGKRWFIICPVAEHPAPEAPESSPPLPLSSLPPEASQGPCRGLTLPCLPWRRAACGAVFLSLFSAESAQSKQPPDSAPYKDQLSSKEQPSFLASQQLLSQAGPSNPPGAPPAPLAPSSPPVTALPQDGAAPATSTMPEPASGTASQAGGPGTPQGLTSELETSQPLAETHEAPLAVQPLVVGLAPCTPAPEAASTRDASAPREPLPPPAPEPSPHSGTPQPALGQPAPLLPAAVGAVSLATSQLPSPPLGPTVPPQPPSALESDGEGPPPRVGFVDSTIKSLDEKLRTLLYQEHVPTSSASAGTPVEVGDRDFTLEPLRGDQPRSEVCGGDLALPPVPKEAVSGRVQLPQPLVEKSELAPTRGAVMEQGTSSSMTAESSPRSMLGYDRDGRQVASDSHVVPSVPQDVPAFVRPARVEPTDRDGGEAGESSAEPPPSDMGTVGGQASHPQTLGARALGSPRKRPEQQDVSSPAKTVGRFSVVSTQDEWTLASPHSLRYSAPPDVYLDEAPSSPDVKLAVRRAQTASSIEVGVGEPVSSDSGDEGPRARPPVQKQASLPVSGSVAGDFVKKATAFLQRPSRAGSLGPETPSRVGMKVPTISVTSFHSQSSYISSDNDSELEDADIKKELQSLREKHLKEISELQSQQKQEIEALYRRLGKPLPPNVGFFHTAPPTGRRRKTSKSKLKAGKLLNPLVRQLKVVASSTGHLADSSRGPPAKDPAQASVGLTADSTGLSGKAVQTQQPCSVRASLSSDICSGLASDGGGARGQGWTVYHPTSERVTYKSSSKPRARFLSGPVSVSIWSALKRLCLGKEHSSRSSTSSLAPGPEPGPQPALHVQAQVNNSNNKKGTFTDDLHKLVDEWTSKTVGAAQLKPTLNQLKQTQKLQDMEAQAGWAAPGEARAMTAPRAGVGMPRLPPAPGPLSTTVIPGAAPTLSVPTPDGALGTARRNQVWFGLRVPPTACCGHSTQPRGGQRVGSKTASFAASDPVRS
Chain of Fgr(h) (P09769 whole entry): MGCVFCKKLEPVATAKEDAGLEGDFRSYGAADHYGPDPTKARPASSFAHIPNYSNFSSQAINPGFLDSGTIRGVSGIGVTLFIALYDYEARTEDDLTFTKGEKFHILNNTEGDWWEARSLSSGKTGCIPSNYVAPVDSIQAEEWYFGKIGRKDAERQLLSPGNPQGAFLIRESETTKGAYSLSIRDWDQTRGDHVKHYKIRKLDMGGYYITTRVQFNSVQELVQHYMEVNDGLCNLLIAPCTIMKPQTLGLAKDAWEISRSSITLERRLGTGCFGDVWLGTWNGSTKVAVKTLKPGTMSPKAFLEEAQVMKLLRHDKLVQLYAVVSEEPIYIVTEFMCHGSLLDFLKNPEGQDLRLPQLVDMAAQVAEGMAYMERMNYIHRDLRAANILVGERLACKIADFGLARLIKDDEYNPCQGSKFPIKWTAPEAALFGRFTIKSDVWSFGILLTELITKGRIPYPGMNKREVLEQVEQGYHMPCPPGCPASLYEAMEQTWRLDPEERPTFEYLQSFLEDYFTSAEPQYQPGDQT
Chain of ZAK(h) (Q9NYL2 whole entry): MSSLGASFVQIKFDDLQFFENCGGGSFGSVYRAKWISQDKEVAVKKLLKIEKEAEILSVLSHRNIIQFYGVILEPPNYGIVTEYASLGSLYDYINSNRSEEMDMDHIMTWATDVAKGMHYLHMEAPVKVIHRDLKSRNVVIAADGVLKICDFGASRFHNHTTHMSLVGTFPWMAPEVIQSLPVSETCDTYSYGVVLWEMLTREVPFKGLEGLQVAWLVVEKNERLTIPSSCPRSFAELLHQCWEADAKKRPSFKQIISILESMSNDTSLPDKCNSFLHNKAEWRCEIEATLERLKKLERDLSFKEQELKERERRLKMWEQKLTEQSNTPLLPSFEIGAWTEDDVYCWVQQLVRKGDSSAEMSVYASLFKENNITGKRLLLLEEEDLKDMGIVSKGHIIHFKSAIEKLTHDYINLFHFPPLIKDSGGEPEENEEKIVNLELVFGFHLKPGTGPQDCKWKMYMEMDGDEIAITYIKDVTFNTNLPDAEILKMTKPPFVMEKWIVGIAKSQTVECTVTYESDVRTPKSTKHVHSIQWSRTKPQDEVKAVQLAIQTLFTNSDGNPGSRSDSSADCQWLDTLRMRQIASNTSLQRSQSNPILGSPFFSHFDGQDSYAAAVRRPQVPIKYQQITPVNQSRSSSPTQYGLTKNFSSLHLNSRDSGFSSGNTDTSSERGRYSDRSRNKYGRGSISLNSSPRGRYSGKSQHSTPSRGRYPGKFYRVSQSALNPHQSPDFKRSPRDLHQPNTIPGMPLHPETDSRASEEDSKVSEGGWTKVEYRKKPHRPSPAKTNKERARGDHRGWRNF
Chain of MLK2(h) (Q02779 whole entry): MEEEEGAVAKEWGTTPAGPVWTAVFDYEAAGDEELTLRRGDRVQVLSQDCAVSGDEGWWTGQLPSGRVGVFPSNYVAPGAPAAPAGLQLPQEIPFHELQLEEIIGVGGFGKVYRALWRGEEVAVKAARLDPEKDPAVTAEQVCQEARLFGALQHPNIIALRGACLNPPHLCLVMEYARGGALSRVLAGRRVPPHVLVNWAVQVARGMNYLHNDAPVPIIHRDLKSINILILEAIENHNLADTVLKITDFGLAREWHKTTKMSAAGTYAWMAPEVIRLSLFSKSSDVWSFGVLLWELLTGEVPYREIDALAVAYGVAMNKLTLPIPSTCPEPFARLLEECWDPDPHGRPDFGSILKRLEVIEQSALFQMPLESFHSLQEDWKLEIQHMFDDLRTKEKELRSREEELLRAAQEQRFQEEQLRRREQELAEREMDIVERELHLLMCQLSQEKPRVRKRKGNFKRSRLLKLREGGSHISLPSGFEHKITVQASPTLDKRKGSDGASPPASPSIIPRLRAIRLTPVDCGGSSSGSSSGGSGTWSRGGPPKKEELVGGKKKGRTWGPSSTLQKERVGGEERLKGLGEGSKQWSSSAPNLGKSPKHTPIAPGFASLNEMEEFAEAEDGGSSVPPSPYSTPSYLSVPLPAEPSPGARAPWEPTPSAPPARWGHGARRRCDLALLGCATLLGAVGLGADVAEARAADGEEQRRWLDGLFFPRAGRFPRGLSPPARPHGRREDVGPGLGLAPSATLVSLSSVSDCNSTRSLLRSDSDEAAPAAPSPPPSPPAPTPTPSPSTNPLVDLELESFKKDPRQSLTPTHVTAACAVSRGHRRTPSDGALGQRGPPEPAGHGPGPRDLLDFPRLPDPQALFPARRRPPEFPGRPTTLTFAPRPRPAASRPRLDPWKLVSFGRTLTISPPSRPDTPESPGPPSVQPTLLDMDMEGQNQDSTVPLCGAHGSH
Chain of PIP4K2a(h) (P48426 whole entry): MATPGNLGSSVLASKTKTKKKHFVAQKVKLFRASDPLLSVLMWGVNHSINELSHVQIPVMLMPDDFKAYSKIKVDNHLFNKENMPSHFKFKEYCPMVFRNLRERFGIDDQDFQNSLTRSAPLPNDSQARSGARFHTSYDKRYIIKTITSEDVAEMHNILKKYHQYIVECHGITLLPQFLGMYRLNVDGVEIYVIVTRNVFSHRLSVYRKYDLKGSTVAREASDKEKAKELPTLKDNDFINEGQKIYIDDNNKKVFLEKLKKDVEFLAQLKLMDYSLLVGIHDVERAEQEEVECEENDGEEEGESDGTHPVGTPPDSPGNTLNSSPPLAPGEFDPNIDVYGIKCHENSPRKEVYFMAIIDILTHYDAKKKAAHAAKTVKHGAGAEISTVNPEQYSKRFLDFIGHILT

**Q.** Which results are given for `C[C@H](NC(=O)c1c[nH]c2ccc(-c3ccc4nc(NC(=O)C5CC5)sc4c3)cc12)c1cccc(F)c1` [Compound 34, (S)-5-(2-(cyclopropanecarboxamido)benzo[d]thiazol-6-yl)-N-(1-(3-fluorophenyl)ethyl)-1H-indole-3-carboxamide]?
**A.** Inhibition ratio (B-Raf(h)): 20%; Inhibition ratio (DMPK(h)): 10%; Inhibition ratio (MLK2(h)): 99%; Inhibition ratio (JNK1α1(h)): 15%; Inhibition ratio (CDKL4(h)): 56%; Inhibition ratio (CDK2/cyclinA(h)): 11%; Inhibition ratio (PIP4K2a(h)): 17%; Inhibition ratio (EphA2(h)): 38%; Inhibition ratio (CLK3(h)): 35%; Inhibition ratio (GRK7(h)): 4%; Inhibition ratio (FGFR2(N549H)(h)): 86%; Inhibition ratio (MSK1(h)): 53%; Inhibition ratio (PKCϵ(h)): −8%; Inhibition ratio (CK2α1(h)): 7%; Inhibition ratio (Lyn(h)): 52%; Inhibition ratio (Fgr(h)): 42%; Inhibition ratio (CDK13/cyclinK(h)): 19%; Inhibition ratio (TLK2(h)): 5%; Inhibition ratio (WNK2(h)): 38%; Inhibition ratio (p70S6K(h)): 25%; Inhibition ratio (Mer(h)): 97%; Inhibition ratio (PKCδ(h)): 7%; Inhibition ratio (CaMKIIδ(h)): 22%; IC50 (RIPK1): 10 to 100 nM; Inhibition ratio (ZAK(h)): 67%; Inhibition ratio (MEK1(h)): 12%; Inhibition ratio (PKBγ(h)): 11%; Inhibition ratio [1]: 33%; Inhibition ratio (STK16(h)): 17%; Inhibition ratio (STK32C(h)): 3%; Inhibition ratio (CDK9/cyclin T1(h)): 41%; Inhibition ratio (Aurora-B(h)): 21%; Inhibition ratio (MRCKγ(h)): −1%; Inhibition ratio (MLK3(h)): 101%

**Q.** With `C[C@H](NC(=O)c1cn(C)c2ccc(-c3ccn4nc(NC(=O)C5CC5)nc4c3)cc12)c1cccc(F)c1` [Compound 94, (S)-5-(2-(cyclopropanecarboxamido)-[1,2,4]triazolo[1,5-a]pyridin-7-yl)-N-(1-(3-fluorophenyl)ethyl)-1-methyl-1H-indole-3-carboxamide] as the compound, how does the Inhibition ratio/% (B-Raf(h)) read?
**A.** −5%

**Q.** What about the Inhibition ratio/% (DMPK(h)) of the same compound?
**A.** −2%

**Q.** What about the Inhibition ratio/% (MLK2(h)) of the same compound?
**A.** 99%

**Q.** What about the Inhibition ratio/% (JNK1α1(h)) of the same compound?
**A.** 53%

**Q.** And the Inhibition ratio/% (CDKL4(h))?
**A.** 76%

**Q.** And the Inhibition ratio/% (CDK2/cyclinA(h))?
**A.** 24%

**Q.** And the Inhibition ratio/% (PIP4K2a(h))?
**A.** 7%

**Q.** And the Inhibition ratio/% (EphA2(h))?
**A.** 15%

**Q.** And the Inhibition ratio/% (CLK3(h))?
**A.** 35%

**Q.** What about the Inhibition ratio/% (GRK7(h)) of the same compound?
**A.** −16%

**Q.** What about the Inhibition ratio/% (FGFR2(N549H)(h)) of the same compound?
**A.** 12%

**Q.** What about the Inhibition ratio/% (MSK1(h)) of the same compound?
**A.** −20%

**Q.** What about the Inhibition ratio/% (PKCϵ(h)) of the same compound?
**A.** 35%

**Q.** And the Inhibition ratio/% (CK2α1(h))?
**A.** 58%

**Q.** What about the Inhibition ratio/% (Lyn(h)) of the same compound?
**A.** 55%

**Q.** What about the Inhibition ratio/% (Fgr(h)) of the same compound?
**A.** 8%

**Q.** And the Inhibition ratio/% (CDK13/cyclinK(h))?
**A.** 66%

**Q.** What about the Inhibition ratio/% (TLK2(h)) of the same compound?
**A.** 25%

**Q.** What about the Inhibition ratio/% (WNK2(h)) of the same compound?
**A.** 6%

**Q.** And the Inhibition ratio/% (p70S6K(h))?
**A.** −18%

**Q.** What about the Inhibition ratio/% (Mer(h)) of the same compound?
**A.** −6%

**Q.** What about the Inhibition ratio/% (PKCδ(h)) of the same compound?
**A.** 48%

**Q.** And the Inhibition ratio/% (CaMKIIδ(h))?
**A.** −11%

**Q.** And the IC50 (RIPK1)?
**A.** 1 to 10 nM

**Q.** What about the Inhibition ratio/% (ZAK(h)) of the same compound?
**A.** 59%

**Q.** What about the Inhibition ratio/% (MEK1(h)) of the same compound?
**A.** 43%

**Q.** What about the Inhibition ratio/% (PKBγ(h)) of the same compound?
**A.** 31%

**Q.** What about the Inhibition ratio/% [1] of the same compound?
**A.** −1%

**Q.** What about the Inhibition ratio/% (STK16(h)) of the same compound?
**A.** 20%

**Q.** What about the Inhibition ratio/% (STK32C(h)) of the same compound?
**A.** 22%

**Q.** What about the Inhibition ratio/% (CDK9/cyclin T1(h)) of the same compound?
**A.** 61%

**Q.** And the Inhibition ratio/% (Aurora-B(h))?
**A.** 25%

**Q.** And the Inhibition ratio/% (MRCKγ(h))?
**A.** 55%

**Q.** What about the Inhibition ratio/% (MLK3(h)) of the same compound?
**A.** 102%
